Test results from ChEMBL document CHEMBL5038591, “Identification of a Novel TAR RNA-Binding Protein 2 Modulator with Potential Therapeutic Activity against Hepatocellular Carcinoma” (J Med Chem, 2021).
Calls of active or inactive are those of the source.

What was measured:
[1] = tested on: HeLa; assay: Antiproliferative activity against human HeLa cells assessed as increase in miR-21 biogenesis level measured after 24 hrs by luciferase assay; assay type: functional, cell-based
[2] = tested on: MDA-MB-231; assay: Antiproliferative activity against human MDA-MB-231 cells incubated for 24 hrs by alamar blue assay; details: MDA-MB-231, 24 h
[3] = tested on: HepG2; assay: Inhibition of colony formation in human HepG2 cells at 30 uM incubated for 14 days by crystal violet staining based assay; assay type: functional, cell-based; details: time 14.0 day
[4] = tested on: SK-HEP1; assay: Antiproliferative activity against human SK-HEP1 cells assessed as increase in miR-21-5p level at 20 uM by qRT-PCR analysis; assay type: functional, cell-based
[5] = target: T1, Signal transducer and activator of transcription 1-alpha/beta (Homo sapiens) (UniProt P42224); assay: Inhibition of STAT1 phosphorylation in human SK-HEP1 cells at 30 uM by Western blot analysis; assay type: cell-based
T1 sequence (whole entry): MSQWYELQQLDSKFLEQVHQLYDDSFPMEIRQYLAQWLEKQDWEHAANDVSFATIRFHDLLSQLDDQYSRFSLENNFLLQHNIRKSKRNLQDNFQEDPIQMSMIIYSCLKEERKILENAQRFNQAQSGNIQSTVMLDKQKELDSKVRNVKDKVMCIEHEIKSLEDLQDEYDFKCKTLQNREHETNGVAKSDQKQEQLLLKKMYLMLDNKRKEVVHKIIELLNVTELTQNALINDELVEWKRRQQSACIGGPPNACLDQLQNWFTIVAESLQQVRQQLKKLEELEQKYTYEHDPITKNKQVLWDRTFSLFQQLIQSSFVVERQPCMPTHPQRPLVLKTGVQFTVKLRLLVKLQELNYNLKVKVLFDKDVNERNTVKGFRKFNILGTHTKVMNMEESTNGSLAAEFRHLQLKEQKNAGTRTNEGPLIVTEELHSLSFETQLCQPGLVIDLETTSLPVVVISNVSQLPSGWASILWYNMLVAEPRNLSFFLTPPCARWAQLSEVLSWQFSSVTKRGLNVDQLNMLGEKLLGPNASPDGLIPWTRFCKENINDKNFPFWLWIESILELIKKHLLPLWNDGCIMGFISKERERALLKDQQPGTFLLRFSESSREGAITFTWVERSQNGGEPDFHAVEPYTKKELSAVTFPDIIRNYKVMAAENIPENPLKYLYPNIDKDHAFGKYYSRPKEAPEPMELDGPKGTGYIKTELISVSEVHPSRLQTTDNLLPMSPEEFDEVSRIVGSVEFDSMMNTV

[6] = tested on: HepG2; assay: Antiproliferative activity against human HepG2 cells at 25 uM incubated for 24 hrs by alamar blue assay; assay type: functional, cell-based
[7] = tested on: Mus musculus; assay: Downregulation of UBE2S expression in mouse liver at 40 mg/kg measured after 30 days by immunohistochemical staining analysis; assay type: functional, organism-based; details: time 30.0 day
[8] = tested on: SK-HEP1; assay: Inhibition of epithelial-mesenchymal transition in human SK-HEP1 cells assessed as change in N-cadherin expression at 10 to 50 uM incubated for 24 hrs by Western blot analysis; assay type: functional, cell-based; details: dose 10-50 µM
[9] = tested on: MHCC97; assay: Antitumor activity in human MHCC97 cells xenografted in SCID mouse assessed as reduction in infiltration of inflammatory cells in left middle lobe of liver at 40 mg/kg, ip measured after 30 days by H and E staining based immunohistochemical analysis; assay type: functional, organism-based; details: time 30.0 day
[10] = tested on: SK-HEP1; assay: Antiproliferative activity against human SK-HEP1 cells assessed as decrease in miR-30a-5p level at 20 uM by qRT-PCR analysis; assay type: functional, cell-based
[11] = tested on: SK-HEP1; assay: Inhibition of epithelial-mesenchymal transition in human SK-HEP1 cells assessed as change in vimentin expression at 10 to 50 uM incubated for 24 hrs by Western blot analysis; assay type: functional, cell-based; details: dose 10-50 µM
[12] = Toxicity in SCID mouse xenografted with human MHCC97 cells assessed as increase in body weight at 40 mg/kg, ip administered once every 3 day for 30 days; assay type: organism-based; details: in vivo, 720 h, time 30 day
[13] = tested on: SK-HEP1; assay: Antiproliferative activity against human SK-HEP1 cells incubated for 24 hrs by alamar blue assay; assay type: functional, cell-based; details: SK-HEP1, 24 h
[14] = tested on: HeLa; assay: Antiproliferative activity against human HeLa cells at 25 uM incubated for 24 hrs by alamar blue assay; assay type: functional, cell-based
[15] = tested on: SK-HEP1; assay: Effect on Dicer protein expression in human SK-HEP1 cells at 30 uM after 24 hrs by immunoblot analysis; assay type: functional, cell-based
[16] = tested on: HCT-116; assay: Inhibition of colony formation in human HCT-116 cells at 30 uM incubated for 14 days by crystal violet staining based assay; assay type: functional, cell-based; details: time 14.0 day
[17] = tested on: SK-HEP1; assay: Antiproliferative activity against human SK-HEP1 cells assessed as increase in miR-26a-5p level at 20 uM by qRT-PCR analysis; assay type: functional, cell-based
[18] = tested on: SK-HEP1; assay: Inhibition of MEK phosphorylation in human SK-HEP1 cells at 30 uM by Western blot analysis; assay type: cell-based
[19] = tested on: SK-HEP1; assay: Inhibition of colony formation in human SK-HEP1 cells at 10 to 50 uM incubated for 14 days by crystal violet staining based assay; assay type: functional, cell-based; details: dose 10-50 µM, time 14.0 day
[20] = tested on: SK-HEP1; assay: Antiproliferative activity against human SK-HEP1 cells knockdown TRBP at 20 uM measured by crystal violet dye based colony formation assay; assay type: functional, cell-based
[21] = tested on: SK-HEP1; assay: Antiproliferative activity against human SK-HEP1 cells assessed as increase in miR-224-5p level at 20 uM by qRT-PCR analysis; assay type: functional, cell-based
[22] = tested on: SK-HEP1; assay: Inhibition of epithelial-mesenchymal transition in human SK-HEP1 cells assessed as change in beta-catenin expression at 10 to 50 uM incubated for 24 hrs by Western blot analysis; assay type: functional, cell-based; details: dose 10-50 µM
[23] = tested on: SK-HEP1; assay: Antiproliferative activity against human SK-HEP1 cells overexpressing TRBP at 20 uM measured by crystal violet dye based colony formation assay; assay type: functional, cell-based
[24] = tested on: SK-HEP1; assay: Induction of apoptosis in human SK-HEP1 cells at 30 uM incubated for 24 hrs by Annexin V-FITC/PI staining based flow cytometry; assay type: functional, cell-based
[25] = tested on: MHCC97; assay: Antiproliferative activity against human MHCC97 cells at 25 uM incubated for 24 hrs by alamar blue assay; assay type: functional, cell-based
[26] = Antiproliferative activity against human QSG7701 cells incubated for 24 hrs by alamar blue assay; assay type: functional, cell-based; details: QSG7701, 24 h
[27] = tested on: MHCC97; assay: Antitumor activity in human MHCC97 cells xenografted in SCID mouse assessed as suppression of tumor growth at 20 mg/kg, ip administered once every 3 day for 30 days by bioluminescence analysis; assay type: functional, organism-based; details: time 30.0 day
[28] = tested on: MHCC97; assay: Antitumor activity against human MHCC97 cells xenografted in SCID mouse assessed as decrease in tumor size at 40 mg/kg, ip administered once every 3 days and measured after 10 days; assay type: functional, organism-based; details: time 10.0 day
[29] = target: Serine/threonine-protein kinase AKT (Homo sapiens) (UniProt P31751+Q9Y243+P31749); assay: Inhibition of AKT phosphorylation in human SK-HEP1 cells at 30 uM by Western blot analysis; assay type: cell-based
[30] = tested on: HCT-116; assay: Antiproliferative activity against human HCT-116 cells incubated for 24 hrs by alamar blue assay; details: HCT-116, 24 h
[31] = tested on: SK-HEP1; assay: Effect on human SK-HEP1 cells assessed as decrease in miR-224-5p level at 10 to 50 uM by qRT-PCR analysis; assay type: functional, cell-based; details: dose 10-50 µM

Chain of Serine/threonine-protein kinase AKT (Homo sapiens) (P31749 whole entry, looked up): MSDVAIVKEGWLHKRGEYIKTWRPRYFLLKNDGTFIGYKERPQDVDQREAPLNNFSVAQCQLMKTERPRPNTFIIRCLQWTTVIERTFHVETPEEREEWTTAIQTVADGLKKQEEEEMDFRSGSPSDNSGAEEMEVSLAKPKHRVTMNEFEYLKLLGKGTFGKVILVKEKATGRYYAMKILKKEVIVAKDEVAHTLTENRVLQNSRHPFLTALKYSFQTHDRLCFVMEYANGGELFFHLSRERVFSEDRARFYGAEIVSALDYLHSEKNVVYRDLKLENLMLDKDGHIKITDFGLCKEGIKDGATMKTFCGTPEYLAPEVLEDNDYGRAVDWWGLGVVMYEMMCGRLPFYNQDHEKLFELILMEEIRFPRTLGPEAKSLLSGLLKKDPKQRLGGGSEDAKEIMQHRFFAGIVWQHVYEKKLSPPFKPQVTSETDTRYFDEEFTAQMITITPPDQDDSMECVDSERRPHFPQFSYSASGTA
Chain of Serine/threonine-protein kinase AKT (Homo sapiens) (P31751 whole entry, looked up): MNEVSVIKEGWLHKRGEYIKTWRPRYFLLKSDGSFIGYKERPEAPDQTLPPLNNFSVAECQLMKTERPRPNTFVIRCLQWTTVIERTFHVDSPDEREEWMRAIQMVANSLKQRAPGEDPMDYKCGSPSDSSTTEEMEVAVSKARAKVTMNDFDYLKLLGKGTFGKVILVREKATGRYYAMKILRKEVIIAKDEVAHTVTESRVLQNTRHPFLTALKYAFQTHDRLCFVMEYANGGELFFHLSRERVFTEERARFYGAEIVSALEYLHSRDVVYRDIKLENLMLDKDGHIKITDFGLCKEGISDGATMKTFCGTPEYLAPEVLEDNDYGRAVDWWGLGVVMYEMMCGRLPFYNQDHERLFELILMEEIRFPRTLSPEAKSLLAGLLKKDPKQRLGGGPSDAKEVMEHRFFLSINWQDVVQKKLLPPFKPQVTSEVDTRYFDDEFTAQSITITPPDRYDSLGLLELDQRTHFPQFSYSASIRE
Chain of Serine/threonine-protein kinase AKT (Homo sapiens) (Q9Y243 whole entry, looked up): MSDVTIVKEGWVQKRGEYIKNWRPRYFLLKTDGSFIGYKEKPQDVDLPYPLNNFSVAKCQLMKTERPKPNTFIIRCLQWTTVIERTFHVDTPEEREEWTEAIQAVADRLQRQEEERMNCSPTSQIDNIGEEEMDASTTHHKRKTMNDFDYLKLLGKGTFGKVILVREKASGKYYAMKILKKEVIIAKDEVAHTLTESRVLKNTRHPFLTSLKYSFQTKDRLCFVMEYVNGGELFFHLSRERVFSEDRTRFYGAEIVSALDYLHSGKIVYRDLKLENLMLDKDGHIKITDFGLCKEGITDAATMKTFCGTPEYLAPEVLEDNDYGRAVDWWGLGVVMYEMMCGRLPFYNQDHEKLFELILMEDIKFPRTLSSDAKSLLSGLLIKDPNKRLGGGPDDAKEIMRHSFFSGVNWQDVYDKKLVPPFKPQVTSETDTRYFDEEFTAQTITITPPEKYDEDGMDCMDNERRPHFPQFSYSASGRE

COc1cc2c(c(O)c1OC)-c1c(cc3c(c1OC)OCO3)C[C@H](C)[C@H](C)C2
active: inhibition [3] | Activity [4] | Activity [6] | Activity [7] | Activity [9] | Activity [14] | inhibition [16] | Activity [17] | inhibition [18] | inhibition [19] | Activity [23] | Activity [25] | Activity [27] | Activity [28] | inhibition [29] | Activity [31]
Toxic: Activity [12]
inactive: inhibition [5] | inhibition [8] | Activity [10] | inhibition [11] | Activity [15] | Activity [20] | Activity [21] | inhibition [22] | Activity [24]
55.4 µM: IC50 [30]
56.6 µM: IC50 [2]
20.6 µM: IC50 [13]
17.2 µM: IC50 [1]
53 µM: IC50 [26]
